In the series the test system is CCRIS mutagenicity, Ames/micronucleus/aberration tests. As to the kind of experiment: CCRIS mutagenicity studies.
Setting [1] is: Test System: AMES SALMONELLA TYPHIMURIUM, Strain/Indicator: TA98, Metabolic Activation: NONE, Method: STANDARD PLATE.
The mark [2] stands for this setting: Test System: AMES SALMONELLA TYPHIMURIUM, Strain/Indicator: TA100, Metabolic Activation: NONE, Method: STANDARD PLATE.
Setting [3] is: Test System: MOUSE LYMPHOMA, Strain/Indicator: L5178Y (TK+/TK-), Metabolic Activation: RAT, LIVER, S-9, AROCLOR 1254, Method: SUSPENSION/PLATE.

Active and inactive are the calls of the source. No rule for the calls is given here.

As to `CN1CCN(c2ccc3nc(CCCCCCc4ccc5nc(-c6ccc(N(CCCl)CCCl)cc6)[nH]c5c4)[nH]c3c2)CC1`, the mutagenic call runs as follows: under setting [1], “inactive; negative”; under setting [2], “inactive; negative”; (Test System: AMES SALMONELLA TYPHIMURIUM, Strain/Indicator: TA102, Metabolic Activation: NONE, Method: STANDARD PLATE) “inactive; negative”.
On to `COP(=O)(OC)O/C(=C\Cl)c1cc(Cl)c(Cl)cc1Cl`, for which the mutagenic call by setting is: (Test System: AMES SALMONELLA TYPHIMURIUM, Strain/Indicator: TA98, Metabolic Activation: NONE) “inactive; negative”; (Test System: AMES SALMONELLA TYPHIMURIUM, Strain/Indicator: TA98, Metabolic Activation: RAT, LIVER, S-9, AROCLOR 1254) “inactive; negative”; (Test System: AMES SALMONELLA TYPHIMURIUM, Strain/Indicator: TA100, Metabolic Activation: NONE) “inactive; negative”; (Test System: AMES SALMONELLA TYPHIMURIUM, Strain/Indicator: TA100, Metabolic Activation: RAT, LIVER, S-9, AROCLOR 1254) “inactive; negative”; (Test System: AMES SALMONELLA TYPHIMURIUM, Strain/Indicator: TA102, Metabolic Activation: NONE) “inactive; negative”; (Test System: AMES SALMONELLA TYPHIMURIUM, Strain/Indicator: TA102, Metabolic Activation: RAT, LIVER, S-9, AROCLOR 1254) “inactive; negative”. For the same compound, the mutagenic call (Test System: AMES SALMONELLA TYPHIMURIUM, Strain/Indicator: TA1535, Metabolic Activation: NONE) is “inactive; negative”; the mutagenic call (Test System: AMES SALMONELLA TYPHIMURIUM, Strain/Indicator: TA1535, Metabolic Activation: RAT, LIVER, S-9, AROCLOR 1254) is “inactive; negative”; the mutagenic call (Test System: AMES SALMONELLA TYPHIMURIUM, Strain/Indicator: TA1537, Metabolic Activation: NONE) was “inactive; negative”; the mutagenic call (Test System: AMES SALMONELLA TYPHIMURIUM, Strain/Indicator: TA1537, Metabolic Activation: RAT, LIVER, S-9, AROCLOR 1254) is “inactive; negative”.
As to `O=C(/C=N/O)Nc1ccccc1`, the mutagenic call was “inactive; negative” (Test System: AMES SALMONELLA TYPHIMURIUM, Strain/Indicator: TA98, Metabolic Activation: HAMSTER, LIVER, S-9, AROCLOR 1254, Method: STANDARD PLATE); “inactive; negative” under setting [1]; “inactive; negative” (Test System: AMES SALMONELLA TYPHIMURIUM, Strain/Indicator: TA98, Metabolic Activation: RAT, LIVER, S-9, AROCLOR 1254, Method: STANDARD PLATE); “inactive; negative” (Test System: AMES SALMONELLA TYPHIMURIUM, Strain/Indicator: TA100, Metabolic Activation: HAMSTER, LIVER, S-9, AROCLOR 1254, Method: STANDARD PLATE); “inactive; negative” under setting [2]; “inactive; negative” (Test System: AMES SALMONELLA TYPHIMURIUM, Strain/Indicator: TA100, Metabolic Activation: RAT, LIVER, S-9, AROCLOR 1254, Method: STANDARD PLATE). The mutagenic call (Test System: AMES SALMONELLA TYPHIMURIUM, Strain/Indicator: TA1535, Metabolic Activation: HAMSTER, LIVER, S-9, AROCLOR 1254, Method: STANDARD PLATE) was “inactive; negative”; the mutagenic call (Test System: AMES SALMONELLA TYPHIMURIUM, Strain/Indicator: TA1535, Metabolic Activation: NONE, Method: STANDARD PLATE) is “inactive; negative”; the mutagenic call (Test System: AMES SALMONELLA TYPHIMURIUM, Strain/Indicator: TA1535, Metabolic Activation: RAT, LIVER, S-9, AROCLOR 1254, Method: STANDARD PLATE) was “inactive; negative”; the mutagenic call (Test System: AMES SALMONELLA TYPHIMURIUM, Strain/Indicator: TA1537, Metabolic Activation: HAMSTER, LIVER, S-9, AROCLOR 1254, Method: STANDARD PLATE) was “inactive; negative”; the mutagenic call (Test System: AMES SALMONELLA TYPHIMURIUM, Strain/Indicator: TA1537, Metabolic Activation: NONE, Method: STANDARD PLATE) was “inactive; negative”; the mutagenic call (Test System: AMES SALMONELLA TYPHIMURIUM, Strain/Indicator: TA1537, Metabolic Activation: RAT, LIVER, S-9, AROCLOR 1254, Method: STANDARD PLATE) is “inactive; negative”. Further, the mutagenic call under setting [3] was “inactive; negative. reevaluation of results: negative” and the mutagenic call (Test System: Mouse lymphoma, Strain/Indicator: L5178Y (tk+/tk-), Metabolic Activation: None, Method: Suspension/plate) is “active; equivocal (previous evaluation: positive)”.
As to `Nc1ccc2cccnc2c1`, the mutagenic call by setting is: (Test System: AMES SALMONELLA TYPHIMURIUM, Strain/Indicator: TA98, Metabolic Activation: NONE, Method: PREINCUBATION) “inactive; negative”; (Test System: AMES SALMONELLA TYPHIMURIUM, Strain/Indicator: TA98, Metabolic Activation: RAT, LIVER, S-9, KANECHLOR 500 OR PHENOBARBITAL AND BETA-NAPHTHOFLAVONE, Method: PREINCUBATION) “active; positive”; (Test System: AMES SALMONELLA TYPHIMURIUM, Strain/Indicator: TA100, Metabolic Activation: NONE, Method: PREINCUBATION) “active; positive”; (Test System: AMES SALMONELLA TYPHIMURIUM, Strain/Indicator: TA100, Metabolic Activation: RAT, LIVER, S-9, KANECHLOR 500 OR PHENOBARBITAL AND BETA-NAPHTHOFLAVONE, Method: PREINCUBATION) “active; positive”.
For the compound `CI`, the mutagenic call (Test System: AMES SALMONELLA TYPHIMURIUM, Strain/Indicator: TA98, Metabolic Activation: NONE, Method: GAS EXPOSURE) is “inactive; negative”; the mutagenic call (Test System: AMES SALMONELLA TYPHIMURIUM, Strain/Indicator: TA98, Metabolic Activation: RAT, LIVER, S-9, PHENOBARBITAL AND BETA--NAPHTHOFLAVONE, Method: GAS EXPOSURE) is “inactive; negative”; the mutagenic call (Test System: AMES SALMONELLA TYPHIMURIUM, Strain/Indicator: TA100, Metabolic Activation: NONE, Method: DESICCATOR) is “active; positive”; the mutagenic call (Test System: AMES SALMONELLA TYPHIMURIUM, Strain/Indicator: TA100, Metabolic Activation: NONE, Method: GAS EXPOSURE) is “active; positive”; the mutagenic call (Test System: AMES SALMONELLA TYPHIMURIUM, Strain/Indicator: TA100, Metabolic Activation: RAT, LIVER, S-9, PHENOBARBITAL AND BETA--NAPHTHOFLAVONE, Method: GAS EXPOSURE) is “active; positive”; the mutagenic call (Test System: AMES SALMONELLA TYPHIMURIUM, Strain/Indicator: TA1535, Metabolic Activation: NONE, Method: GAS EXPOSURE) was “inactive; negative”. Further, the mutagenic call is “inactive; negative” (Test System: AMES SALMONELLA TYPHIMURIUM, Strain/Indicator: TA1535, Metabolic Activation: RAT, LIVER, S-9, PHENOBARBITAL AND BETA--NAPHTHOFLAVONE, Method: GAS EXPOSURE); “active; positive” (Test System: AMES SALMONELLA TYPHIMURIUM, Strain/Indicator: TA1535, Metabolic Activation: RAT, LIVER, S-9, Method: SPOT); “inactive; negative” (Test System: AMES SALMONELLA TYPHIMURIUM, Strain/Indicator: TA1537, Metabolic Activation: NONE, Method: GAS EXPOSURE); “inactive; negative” (Test System: AMES SALMONELLA TYPHIMURIUM, Strain/Indicator: TA1537, Metabolic Activation: RAT, LIVER, S-9, PHENOBARBITAL AND BETA--NAPHTHOFLAVONE, Method: GAS EXPOSURE); “inactive; negative” (Test System: E. COLI, Strain/Indicator: WP2UVRA, Metabolic Activation: NONE, Method: GAS EXPOSURE); “inactive; negative” (Test System: E. COLI, Strain/Indicator: WP2UVRA, Metabolic Activation: RAT, LIVER, S-9, PHENOBARBITAL AND BETA--NAPHTHOFLAVONE, Method: GAS EXPOSURE). The mutagenic call runs as follows: (Test System: MOUSE LYMPHOMA, Strain/Indicator: L5178Y (TK+/TK-), Metabolic Activation: NONE, Method: SUSPENSION/PLATE) “active; positive”; under setting [3], “active; positive”.
As to `COc1ccc2c(c1)nc(N)n2C`, the mutagenic call was “active; positive” (Test System: AMES SALMONELLA TYPHIMURIUM, Strain/Indicator: TA98, Metabolic Activation: RAT, LIVER, S-9, AROCLOR 1254, Method: PREINCUBATION) and “active; positive” (Test System: AMES SALMONELLA TYPHIMURIUM, Strain/Indicator: TA100, Metabolic Activation: RAT, LIVER, S-9, AROCLOR 1254, Method: PREINCUBATION).
With `O=CN(O)c1ccc(Oc2c(Cl)cc(Cl)cc2Cl)cc1`, the mutagenic call was “inactive; negative” under setting [2] and “active; positive” (Test System: AMES SALMONELLA TYPHIMURIUM, Strain/Indicator: TA100, Metabolic Activation: RAT, LIVER, S-9, KANECLOR 500, Method: STANDARD PLATE).
